Assay results reported in PubChem BioAssay AID248 (DTP/NCI, 2004).
Values joined by “and” are separate entries in the source; they are usually repeats but may differ in a detail not shown here. Equal values may be shown once. Inconclusive results and toxic doses are left out. Cut-off read from the data, not from the text of the source: active = T/C of 150% or more; inactive = T/C below 125%.

Test system: L1210 leukemia ip in BDF1 mice, survival T/C
Assay: NCI In Vivo Anticancer Drug Screen. Data for tumor model L1210 Leukemia (intraperitoneal) in B6D2F1 (BDF1) mice
Conditions: endpoint: mean survival time, higher = longer survival
How it was run: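 Tumor cells were implanted, animals were treated, and survival was followed. The result divides the treated measurement by the vehicle-control measurement.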

[1] = dose: 100.0 mg/kg/injection, schedule: Q01DX009 (ip), vehicle: Klucel (hydroxypropylcellulose) (HPC)
[2] = dose: 100.0 mg/kg/injection, schedule: Q04DX003 (ip), vehicle: Klucel (hydroxypropylcellulose) (HPC)
[3] = dose: 200.0 mg/kg/injection, schedule: Q01DX009 (ip), vehicle: Klucel (hydroxypropylcellulose) (HPC)
[4] = dose: 200.0 mg/kg/injection, schedule: Q04DX003 (ip), vehicle: Klucel (hydroxypropylcellulose) (HPC)
[5] = dose: 400.0 mg/kg/injection, schedule: Q01DX009 (ip), vehicle: Klucel (hydroxypropylcellulose) (HPC)
[6] = dose: 400.0 mg/kg/injection, schedule: Q04DX003 (ip), vehicle: Klucel (hydroxypropylcellulose) (HPC)
[7] = dose: 50.0 mg/kg/injection, schedule: Q01DX009 (ip), vehicle: saline
[8] = dose: 100.0 mg/kg/injection, schedule: Q01DX009 (ip), vehicle: saline
[9] = dose: 200.0 mg/kg/injection, schedule: Q01DX009 (ip), vehicle: saline
[10] = dose: 400.0 mg/kg/injection, schedule: Q01DX009 (ip), vehicle: saline
[11] = dose: 50.0 mg/kg/injection, schedule: Q01DX001 (ip), vehicle: saline
[12] = dose: 100.0 mg/kg/injection, schedule: Q01DX001 (ip), vehicle: saline
[13] = dose: 200.0 mg/kg/injection, schedule: Q01DX001 (ip), vehicle: saline
[14] = dose: 100.0 mg/kg/injection, schedule: Q01DX001 (ip), vehicle: carboxymethylcellulose (CMC)
[15] = dose: 200.0 mg/kg/injection, schedule: Q01DX001 (ip), vehicle: carboxymethylcellulose (CMC)
[16] = dose: 400.0 mg/kg/injection, schedule: Q01DX001 (ip), vehicle: carboxymethylcellulose (CMC)
[17] = dose: 100.0 mg/kg/injection, schedule: Q04DX003 (ip), vehicle: saline with Tween-80
[18] = dose: 200.0 mg/kg/injection, schedule: Q04DX003 (ip), vehicle: saline with Tween-80

Measured: T/C

Cc1c(Cl)cccc1NC(=O)c1cccc([N+](=O)[O-])c1
inactive: [1] 103 % of control | [2] 96 % of control | [3] 95 % of control | [4] 93 % of control | [5] 94 % of control | [6] 91 % of control

Cc1ccc2c(c1)P(=O)(O)c1cc(F)ccc1O2
inactive: [7] 105 % of control | [8] 112 % of control | [9] 112 % of control | [10] 108 % of control

C=C(c1ccccc1)C(C)C(=O)OCC (stereo unspecified)
inactive: dose: 100.0 mg/kg/injection, schedule: Q01DX009 (ip), vehicle: saline with Tween-80 96 % of control | dose: 200.0 mg/kg/injection, schedule: Q01DX009 (ip), vehicle: saline with Tween-80 101 % of control | dose: 400.0 mg/kg/injection, schedule: Q01DX009 (ip), vehicle: saline with Tween-80 98 % of control

CN(C)C1(C(=O)O)c2ccccc2-c2ccccc21
inactive: [11] 100 % of control | [12] 100 % of control | [13] 97 % of control

O=C1CC(C(=O)O)c2ccccc21 (stereo unspecified)
inactive: [7] 93 % of control | [8] 90 % of control | [9] 93 % of control

CC(C)N(C(=O)CSc1c(Cl)c(Cl)c(Cl)c(Cl)c1Cl)C(C)C
inactive: dose: 100.0 mg/kg/injection, schedule: Q04DX002 (ip), vehicle: other 107 % of control and 113 % of control | dose: 100.0 mg/kg/injection, schedule: Q04DX003 (ip), vehicle: other 89 % of control and 91 % of control | dose: 200.0 mg/kg/injection, schedule: Q04DX002 (ip), vehicle: other 95 % of control and 106 % of control | dose: 200.0 mg/kg/injection, schedule: Q04DX003 (ip), vehicle: other 96 % of control and 91 % of control | dose: 400.0 mg/kg/injection, schedule: Q04DX003 (ip), vehicle: other 94 % of control

CCCCCCn1c(O)c(C=N)c(=O)[nH]c1=O
inactive: [1] 100 % of control | [2] 93 % of control | [3] 99 % of control | [4] 100 % of control | [5] 97 % of control | [6] 94 % of control

Brc1cccc2c(I)cccc12
inactive: [14] 95 % of control | [15] 98 % of control | [16] 92 % of control

O=C(O)c1nnc(C(=O)O)nn1
inactive: [7] 96 % of control | [8] 102 % of control and 104 % of control | dose: 100.0 mg/kg/injection, schedule: Q04DX003 (ip), vehicle: saline 100 % of control | [9] 100 % of control and 101 % of control | dose: 200.0 mg/kg/injection, schedule: Q04DX003 (ip), vehicle: saline 103 % of control | [10] 96 % of control | dose: 400.0 mg/kg/injection, schedule: Q04DX003 (ip), vehicle: saline 94 % of control

O=C(O)COc1ccc(Cl)cc1
inactive: [2] 97 % of control | [4] 100 % of control | [6] 100 % of control

O=C(CSc1cc(Cl)c(Cl)cc1Cl)Nc1ccc(Cl)cc1Cl
inactive: dose: 100.0 mg/kg/injection, schedule: Q01DX001 (ip), vehicle: saline with Tween-80 87 % of control | dose: 200.0 mg/kg/injection, schedule: Q01DX001 (ip), vehicle: saline with Tween-80 93 % of control | dose: 400.0 mg/kg/injection, schedule: Q01DX001 (ip), vehicle: saline with Tween-80 93 % of control

c1ccc(C2C(c3ccccc3)N2c2ccccc2)cc1 (stereo unspecified)
inactive: dose: 50.0 mg/kg/injection, schedule: Q01DX001 (ip), vehicle: carboxymethylcellulose (CMC) 105 % of control | [14] 113 % of control | [2] 92 % of control | [17] 97 % of control | [15] 113 % of control | [4] 94 % of control | [18] 90 % of control | [16] 103 % of control | [6] 92 % of control | dose: 400.0 mg/kg/injection, schedule: Q04DX003 (ip), vehicle: saline with Tween-80 87 % of control

CC1(C)N=C(N)N=C(N)N1NC(=O)c1ccc(Cl)cc1
inactive: [17] 100 % of control | [18] 103 % of control

Cc1ccc([N+](=O)[O-])cc1[I+]c1ccccc1C(=O)[O-]
inactive: [11] 103 % of control | [12] 106 % of control | [13] 91 % of control | dose: 400.0 mg/kg/injection, schedule: Q01DX001 (ip), vehicle: saline 101 % of control

COc1cccc(/C=N/N=C(N)N)c1OC
inactive: dose: 62.5 mg/kg/injection, schedule: Q01DX Z (ip), vehicle: saline 101 % of control

CN1CCC(OC(=O)C2CC(=O)NC(=O)C2)CC1
inactive: [2] 107 % of control | [4] 102 % of control | [6] 94 % of control
